# Biological target: AMPA receptors
# Test: Binding of 3H-AMPA to rat cerebral membrane material
# Conditions: displacement of 3H-AMPA, membrane material from rat cerebra, incubated on ice for 60 minutes
# Method: The pharmacological activity of the compounds I according to the invention was investigated on isolated membrane material from rat brains. For this purpose, the membrane material was incubated in the presence of the substances according to the invention with the radiolabeled substances ^3 H-2-amino-3-hydroxy-5-methyl-4-isoxazolepropionic acid (^3 H-AMPA), ^3 H-5,7-dichlorokynurenic acid or ^3 H-kainate. During this the said radioligands bind in each case to the glutamate receptors specific for them, ie. to AMPA receptors, (^3 H-5,7-dichlorokynurenic acid-binding) NMDA receptors and kainate receptors respectively. After the incubation, the membranes with the receptor-bound radioligands were separated from the free radioligands, and the radioactivity associated with the membranes as measured by liquid scintillation counting. The concentration of receptor-bound ligands, and the extent of displacement of a given radioligand by particular concentrations of the compounds I according to the invention, can be determined from the radioactivity of the membranes. […]
row,Ki [µM],SMILES
1,< 10,"O=C(NCc1ccn(-c2cc3[nH]c(=O)c(=O)[nH]c3cc2[N+](=O)[O-])c1)c1ccncc1 [Example 3, acetate]"
2,< 10,"O=C(O)Cn1c(=O)c(=O)[nH]c2cc([N+](=O)[O-])c(-n3ccc(CN4CCCCC4)c3)cc21 [Example 14, 1-Carboxymethyl-6-nitro-7-(3-((1-piperidinyl)methyl)-1-pyrrolyl)quinoxaline-2,3(1H,4H)-dione]"
